The nature of series [1]: Stability of compound in drinking water. It counts as physicochemical. Conditions: drinking water pH=7-7.4, room temperature, 20-30 days. The text has this:
Previously, the inventors developed series of derivatives of the tetrazole, thiazole, and 1,2,3-triazole families that were thought to be reversible inhibitors of the cytochrome c oxidase (CcO) model and characterized as possible moderate inhibitors of mitochondrial respiration (Barile et al. (2012), Proceedings of the National Academy of Sciences of the United States of America, 109:7, pp. 2539-2543). In this research, a triphenyl phosphonium thiazole derivative (referred to herein as HG1a-1) was randomly selected. Overall, no mice died due to oral administration of compound during 18-20 months. […]
(§1) The C57BL/6 mice were maintained on a standard purified mouse diet (PicoLab 5053 Rodent Diet 20; Lab Diets) until they reached 2 months of age when the treatments started. […] Body weights were measured weekly at the same time each week. Food and water intake were measured once every month for 3-6 consecutive days at the same time each month. Water consumption was measured for 2 weeks prior to the start of administration. Compound was generated and modified for better permeability in to mitochondria, evaluated by HPLC, was 96%-97%. […] Aliquots were collected from each batch and measured by HPLC to confirm stability of the compound. […] Rectal body temperature was measured monthly, as described previously. Whole blood samples, and histopathology were analyzed after 14 months of treatment. […]

Series [2] in a line: Long-term oral administration in drinking water, tolerability. It counts as in vivo, C57BL/6 mice. The procedure:
(§2) Animal experimentation. Male C57BL/6 mice (Shanghai SLAC Laboratory animal Co. Ltd) were group-housed in a barrier facility with 12-hr light/12-hr dark cycles. All mice received a regular chow diet ad libitum (PicoLab 5053 Rodent Diet 20; Lab Diets) except for HFD (40-60%) and CR models. The compound was then administered in drinking water ad libitum at either 90-100 or 100-120 mg/kg/day, based on the previously measured water consumption.
as §1

The subject of series [3] is reactive oxygen species (ROS). The series is described as follows: Serum ROS generation evaluation. The conditions noted are these: blood plasma, after 14 months of treatment. It counts as in vivo, mouse.
Another series has as its system 3T3-L1 pre-adipocytes. Put plainly: In vitro adipocyte differentiation (Oil Red O, protein blotting). It is filed as cell-based.
In series [4] the test system is ASC1, Wdnm1-like, FGF-21, PGC-1α transcripts. The series is described as follows: qPCR of adipogenesis regulators and white fat inducing transcripts in visceral fat. It is filed as in vivo, mouse. The procedure:
(§3) Gene expression & RT qPCR Analyses. Total RNA was isolated using a commercially available kit (OMEGA bio-tek, R6812-02) according to the manufacturer's instructions. cDNA was generated using the PrimeScript RT reagent kit (TAKARA, RR047A). Gene expression were determined by qPCR as described in the product manual. The analysis was evaluated by Bio-Rad Real-Time System (CFX Connect™).
(§4) RNAs from 10 mice (5 treated and 5 Ctrl.) VF fat or livers were isolated by using omega Bio-Tek reagents, and cDNA was transcribed by (TAKARA). qPCR was then performed by using iQ SYBR Green mastermix bioscience on a CFX96 Real-Time System/C1000 Thermal Cycler (Bio-Rad).
(In general: Quantitative PCR measures a nucleic acid by following its amplification.)

For a further series, the system named is AMPK, FOXO1, SIRT3. Put plainly: qPCR and immunoblotting of hepatic glucose metabolism and longevity markers. It counts as in vivo, mouse. Here is the method:
Immunoblotting analyses. Western blot analyses carried out in mouse livers, heart and adipose tissues collected from aged mice after treatments. Proteins (40 μg) were separated by electrophoresis on a sodium dodecyl sulfate (SDS) 4-20% polyacrylamide gel under reducing conditions. Membranes (Amersham Hybond PVDF, Germany) were probed overnight at 4° C. using Total OX-OPHOS Rodent cocktail (ab110413, USA), Complex IV, AMPK γ1, PGC-1α and Pparγ, FOXO1, TNF-α, IL-6 (USA, abCAM) and then incubated with polyclonal Goat anti-mouse IgG H&R (1:2000, ab6789, USA) in blocking buffer for 2 h at room temperature. To assure equal loading and/or to normalize protein content, the membrane blots were incubated with mouse anti-β-actin monoclonal antibody (mAbcam8227). Proteins were visualized using a chemiluminescence ECL Western blotting detection reagent (Bio-rad, USA). Quantification of protein was performed by chemiluminescence blot scanning (Quantity One™ version 4.6.3. Bio Rad).
as §3, §4

Series [5] can be described thus: Body weight variations on high fat diet (HFD, 60% fat). It counts as in vivo, C57BL/6 mice. Conditions: for body weight gain on HFD: after 8 weeks HFD; for BW contrast of treated vs control: end of 8-week HFD. Here is the method: as §2
The C57BL/6 mice were maintained on a standard purified mouse diet (PicoLab 5053 Rodent Diet 20; Lab Diets) until they reached 2 months of age when the treatments started. The CR animals were subjected to a lifelong restriction on PicoLab 5053 Rodent Diet 20; Lab Diets, starting at 12 weeks of age, with a daily food allotment of 60% of that eaten by the ad lib animals. Besides CR animals, the C57BL/6 groups in this study were fed the standard high fat diet (HFD; 60 or 40% fat). Body weights were measured weekly at the same time each week. Food and water intake were measured once every month for 3-6 consecutive days at the same time each month. Water consumption was measured for 2 weeks prior to the start of administration. Compound was generated and modified for better permeability in to mitochondria, evaluated by HPLC, was 96%-97%. The administration began at 8 weeks of age and continued for 16 months, until they became 18-month-old. The drug solution was prepared weekly in small batches by dissolving the compound into autoclaved water at the respective doses and filtering sterilely. Aliquots were collected from each batch and measured by HPLC to confirm stability of the compound. Water bottles and cages were changed twice weekly. Fed and fasted blood samples were collected monthly at the same time each month from tail and used for glucose, insulin, blood cell counts, lipid analysis using assay kits (Robio, China) and HbA1C assay kit (Crystal chem, USA) following the manufacturer protocol. IPGTTs and ITTs were conducted throughout morning and early afternoon after fasting for 16-18 hrs. and 4 hrs., respectively, once before start of treatment administration began and every 3 months thereafter. Rectal body temperature was measured monthly, as described previously. Whole blood samples, and histopathology were analyzed after 14 months of treatment. Tissue samples were collected after 10-14 months from mice, sacrificed and used for WB and qPCR microarray, and other analyses. All animal studies were approved by the Shanghai Jiao Tong University Animal Studies Committee and were in accordance with NIH guidelines. (Number of mice; SD=30, HFD=10, CR=20).

Where [6] appears, read: liver, 14 months treatment (FIG. 6A).

Molecules are shown by their SMILES. Where only a bound is given, the exact number is not on record here.

Turning to `Cc1ncsc1CCOC(=O)C[P+](c1ccccc1)(c1ccccc1)c1ccccc1.[Br-]` [HG1a-1, (2-(2-(4-Methylthiazol-5-yl)Ethoxy)-2-Oxoethyl) Triphenylphosphonium Bromide], the “compound maintained intact in drinking water” value in series [1] is 95%-99. Besides, in series [2] (18 month long treatment), the “tolerability of long-term regulated mitochondrial inhibition” value is “well-tolerated without any deleterious effect”. Further, in series [2] (oral, 18-20 months), the “mortality due to oral administration” value is on record as “no mice died”. In addition, the “drop of ROS production” value in series [3] was approximately 4 fold. Also, the adipocyte differentiation entry in the series on 3T3-L1 pre-adipocytes (3T3-L1, up to 14 days) was “poorly differentiated, immature adipocytes”. The “protein abundance of Pparγ” value in the series on 3T3-L1 pre-adipocytes (3T3-L1 cells) was “significant reduction”. Moreover, in series [4] (14 months of treatment), the “ASC1 transcript decrease vs control” value is more than 9 fold, the FGF-21 transcript result is “remained unchanged” and the “Wdnm1-like transcript decrease vs control” value worked out at 30 fold. For the same compound, the PGC-1α transcript entry in series [4] (aged mice) is recorded as “increased”. Further, in the series on AMPK, FOXO1, SIRT3 (setting [6]), the APMK amplified turned out to be 5 fold, the FOXO1 amplified came out at 3 fold and the SIRT3 amplified result was “one-fold”. Further, in the series on AMPK, FOXO1, SIRT3 (livers of treated mice), the “enhanced deacetylation of FoxO-1” value was 3 fold and the “relative levels of phosphorylated AMPK increased” value amounted to 5 fold. In addition, in the series on AMPK, FOXO1, SIRT3 (treated group (FIG. 6A)), the SIRT-3 level result is “marked upgrade”. Besides, the “BW gain on HFD” value in series [5] (14 month old mice already treated for 12 months, 8 week HFD) is reported as “resisted the BW gain with HFD until 5 weeks”. Moreover, the “body weight gain on HFD” value in series [5] (aged group (12 month old)) was 12%. Also, in series [5] (aged group), the “BW contrast of treated vs control” value is on record as 13%. The “body weight gain on HFD” value in series [5] (younger group (12 week old)) was 18%. Further, the “BW contrast of treated vs control” value in series [5] (younger group) is recorded as 2-4%.
